Source: the NIST ThermoML archive (doi:10.1021/je500980a)
± gives the expanded uncertainty stated by the source.

Settings: Liquid

CCCCCCCCCC(=O)OC [methyl decanoate]
viscosity [mPa·s]
Settings	293.15 K	313.15 K	333.15 K	353.15 K
101.3 kPa, Falling or rolling sphere viscometry	2.15 ± 0.08	1.46 ± 0.05	1.07 ± 0.04	0.825 ± 0.03
101.3 kPa, Quartz crystal resonator	2.13 ± 0.04	1.5 ± 0.03	1.08 ± 0.02	0.837 ± 0.017
10000 kPa, Quartz crystal resonator	2.36 ± 0.05	1.66 ± 0.04	1.19 ± 0.03	0.927 ± 0.019
20000 kPa, Falling or rolling sphere viscometry	2.66 ± 0.1	1.83 ± 0.07	1.32 ± 0.05	1.01 ± 0.04
20000 kPa, Quartz crystal resonator	2.62 ± 0.05	1.84 ± 0.04	1.3 ± 0.03	1.02 ± 0.02
30000 kPa, Quartz crystal resonator	2.92 ± 0.06	2 ± 0.04	1.43 ± 0.03	1.12 ± 0.02
40000 kPa, Falling or rolling sphere viscometry	3.24 ± 0.12	2.21 ± 0.08	1.58 ± 0.06	1.21 ± 0.04
40000 kPa, Quartz crystal resonator	3.21 ± 0.07	2.2 ± 0.05	1.55 ± 0.03	1.22 ± 0.03
50000 kPa, Quartz crystal resonator	3.53 ± 0.07	2.39 ± 0.05	1.68 ± 0.04	1.31 ± 0.03
60000 kPa, Falling or rolling sphere viscometry	3.91 ± 0.14	2.65 ± 0.1	1.86 ± 0.07	1.42 ± 0.05
60000 kPa, Quartz crystal resonator	3.87 ± 0.08	2.59 ± 0.05	1.81 ± 0.04	1.42 ± 0.03
70000 kPa, Quartz crystal resonator	4.22 ± 0.09	2.82 ± 0.06	1.97 ± 0.04	1.53 ± 0.03
80000 kPa, Falling or rolling sphere viscometry	4.67 ± 0.17	3.12 ± 0.11	2.17 ± 0.08	1.64 ± 0.06
80000 kPa, Quartz crystal resonator	4.61 ± 0.1	3.06 ± 0.06	2.11 ± 0.04	1.63 ± 0.03
90000 kPa, Quartz crystal resonator	5.02 ± 0.11	3.29 ± 0.07	2.26 ± 0.05	1.75 ± 0.04
100000 kPa, Falling or rolling sphere viscometry	5.53 ± 0.2	3.63 ± 0.13	2.5 ± 0.09	1.88 ± 0.07
100000 kPa, Quartz crystal resonator	5.47 ± 0.11	3.56 ± 0.08	2.43 ± 0.05	1.87 ± 0.04
120000 kPa, Falling or rolling sphere viscometry	6.52 ± 0.24	4.21 ± 0.15	2.86 ± 0.1	2.13 ± 0.08
120000 kPa, Quartz crystal resonator	6.47 ± 0.26	4.1 ± 0.17	2.76 ± 0.11	2.13 ± 0.09
140000 kPa, Falling or rolling sphere viscometry	7.66 ± 0.28	4.85 ± 0.18	3.26 ± 0.12	2.41 ± 0.09
140000 kPa, Quartz crystal resonator	7.82 ± 0.32	4.75 ± 0.19	3.19 ± 0.13	2.41 ± 0.1
160000 kPa, Falling or rolling sphere viscometry	8.96 ± 0.32	5.56 ± 0.2	3.7 ± 0.13	2.71 ± 0.1
160000 kPa, Quartz crystal resonator	9.17 ± 0.37	5.43 ± 0.22	3.62 ± 0.15	2.72 ± 0.11
180000 kPa, Falling or rolling sphere viscometry	–	6.35 ± 0.23	4.18 ± 0.15	3.03 ± 0.11
180000 kPa, Quartz crystal resonator	–	6.29 ± 0.25	4.07 ± 0.17	3.05 ± 0.12
200000 kPa, Falling or rolling sphere viscometry	–	7.24 ± 0.26	4.7 ± 0.17	3.38 ± 0.12
200000 kPa, Quartz crystal resonator	–	7.13 ± 0.29	4.54 ± 0.18	3.41 ± 0.14

CCCCCCCCCC(=O)OCC [ethyl decanoate]
viscosity [mPa·s]
Settings	293.15 K	313.15 K	333.15 K	353.15 K
101.3 kPa, Falling or rolling sphere viscometry	2.34 ± 0.09	1.59 ± 0.06	1.16 ± 0.04	0.888 ± 0.032
101.3 kPa, Quartz crystal resonator	2.33 ± 0.05	1.59 ± 0.03	1.16 ± 0.02	0.893 ± 0.019
10000 kPa, Quartz crystal resonator	2.59 ± 0.05	1.77 ± 0.04	1.28 ± 0.03	1 ± 0.02
20000 kPa, Falling or rolling sphere viscometry	2.94 ± 0.11	1.96 ± 0.07	1.44 ± 0.05	1.1 ± 0.04
20000 kPa, Quartz crystal resonator	2.91 ± 0.06	1.97 ± 0.04	1.43 ± 0.03	1.1 ± 0.02
30000 kPa, Quartz crystal resonator	3.22 ± 0.07	2.18 ± 0.05	1.59 ± 0.03	1.21 ± 0.03
40000 kPa, Falling or rolling sphere viscometry	3.62 ± 0.13	2.38 ± 0.09	1.74 ± 0.06	1.32 ± 0.05
40000 kPa, Quartz crystal resonator	3.57 ± 0.07	2.39 ± 0.05	1.74 ± 0.04	1.32 ± 0.03
50000 kPa, Quartz crystal resonator	3.95 ± 0.08	2.62 ± 0.06	1.87 ± 0.04	1.45 ± 0.03
60000 kPa, Falling or rolling sphere viscometry	4.4 ± 0.16	2.85 ± 0.1	2.06 ± 0.07	1.56 ± 0.06
60000 kPa, Quartz crystal resonator	4.35 ± 0.09	2.86 ± 0.06	2.07 ± 0.04	1.58 ± 0.03
70000 kPa, Quartz crystal resonator	4.8 ± 0.1	3.14 ± 0.07	2.2 ± 0.05	1.72 ± 0.04
80000 kPa, Falling or rolling sphere viscometry	5.29 ± 0.19	3.37 ± 0.12	2.42 ± 0.09	1.82 ± 0.07
80000 kPa, Quartz crystal resonator	5.23 ± 0.11	3.44 ± 0.07	2.37 ± 0.05	1.84 ± 0.04
90000 kPa, Quartz crystal resonator	5.74 ± 0.12	3.72 ± 0.08	2.59 ± 0.05	1.98 ± 0.04
100000 kPa, Falling or rolling sphere viscometry	6.3 ± 0.23	3.96 ± 0.14	2.81 ± 0.1	2.1 ± 0.08
100000 kPa, Quartz crystal resonator	6.25 ± 0.13	4.04 ± 0.09	2.82 ± 0.06	2.13 ± 0.04
120000 kPa, Falling or rolling sphere viscometry	7.45 ± 0.27	4.62 ± 0.17	3.23 ± 0.12	2.4 ± 0.09
120000 kPa, Quartz crystal resonator	7.46 ± 0.3	4.69 ± 0.19	3.27 ± 0.13	2.42 ± 0.1
140000 kPa, Falling or rolling sphere viscometry	8.78 ± 0.32	5.35 ± 0.19	3.7 ± 0.13	2.73 ± 0.1
140000 kPa, Quartz crystal resonator	8.83 ± 0.36	5.52 ± 0.22	3.72 ± 0.15	2.74 ± 0.11
160000 kPa, Falling or rolling sphere viscometry	10.3 ± 0.37	6.18 ± 0.22	4.22 ± 0.15	3.08 ± 0.11
160000 kPa, Quartz crystal resonator	10.7 ± 0.4	6.27 ± 0.26	4.25 ± 0.17	3.14 ± 0.13
180000 kPa, Falling or rolling sphere viscometry	12.06 ± 0.44	7.11 ± 0.26	4.78 ± 0.17	3.46 ± 0.13
180000 kPa, Quartz crystal resonator	12.4 ± 0.5	7.31 ± 0.3	4.7 ± 0.19	3.53 ± 0.14
200000 kPa, Falling or rolling sphere viscometry	14.1 ± 0.51	8.16 ± 0.3	5.41 ± 0.2	3.88 ± 0.14
200000 kPa, Quartz crystal resonator	14.5 ± 0.6	8.36 ± 0.34	5.36 ± 0.22	3.98 ± 0.16
